Results reported in ChEMBL document CHEMBL1909046, “DrugMatrix in vitro pharmacology data”.

Legend:
[1] = DRUGMATRIX: Calcium Channel Type L, Phenylalkylamine radioligand binding (ligand: [3H] (-)-Desmethoxyverapamil (D-888)); type: cell membranes, Rattus norvegicus, Wistar, Brain, Membrane; details: Not Active = under 50% inhibition at 10 µM
[2] = DRUGMATRIX: GABAA, Chloride Channel, TBOB radioligand binding (ligand: [3H] TBOB); type: cell membranes, Rattus norvegicus, Wistar, Cerebral cortex, Membrane; details: Not Active = under 50% inhibition at 10 µM
[3] = DRUGMATRIX: Leukotriene, BLT (LTB4) radioligand binding (ligand: [3H]LTB4); type: cell membranes, Membrane; details: u-937; Not Active = under 50% inhibition at 10 µM
[4] = molecular target: T1, Muscarinic acetylcholine receptor M5 (Homo sapiens, UniProt P08912); type: cell membranes, CHO-K1, Membrane; details: cho-k1; note: in other assays of this panel Not Active means under 50% inhibition at 10 µM
T1 sequence (P08912 whole entry): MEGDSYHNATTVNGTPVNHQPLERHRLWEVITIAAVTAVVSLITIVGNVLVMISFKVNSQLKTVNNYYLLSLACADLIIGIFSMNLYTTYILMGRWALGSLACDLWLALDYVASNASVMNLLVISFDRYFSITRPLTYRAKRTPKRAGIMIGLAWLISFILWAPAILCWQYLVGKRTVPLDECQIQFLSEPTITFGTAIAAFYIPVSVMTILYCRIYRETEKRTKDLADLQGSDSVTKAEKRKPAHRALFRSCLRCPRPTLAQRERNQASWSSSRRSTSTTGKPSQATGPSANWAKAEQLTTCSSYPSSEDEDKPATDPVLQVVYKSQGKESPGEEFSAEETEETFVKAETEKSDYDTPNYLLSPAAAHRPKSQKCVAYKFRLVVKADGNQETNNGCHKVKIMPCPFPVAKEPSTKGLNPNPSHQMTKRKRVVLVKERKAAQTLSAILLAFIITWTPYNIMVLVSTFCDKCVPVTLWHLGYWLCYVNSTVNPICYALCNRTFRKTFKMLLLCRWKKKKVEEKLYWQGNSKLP

[5] = molecular target: cGMP-specific 3',5'-cyclic phosphodiesterase (Homo sapiens, UniProt O76074); test: DRUGMATRIX: Phosphodiesterase PDE5 enzyme inhibition (substrate: [3H]cGMP + cGMP); type: tissue-based; details: platelet; Not Active = under 50% inhibition at 10 µM
[6] = DRUGMATRIX: Potassium Channel [KATP] radioligand binding (ligand: [3H] Glyburide); type: cell membranes, Membrane; details: hit-t15; Not Active = under 50% inhibition at 10 µM
[7] = molecular target: Adenosine receptor A2a (Homo sapiens, UniProt P29274); test: DRUGMATRIX: Adenosine A2A radioligand binding (ligand: […]); type: cell membranes, Membrane; details: hek293; Not Active = under 50% inhibition at 10 µM
Chain of Adenosine receptor A2a (P29274 whole entry): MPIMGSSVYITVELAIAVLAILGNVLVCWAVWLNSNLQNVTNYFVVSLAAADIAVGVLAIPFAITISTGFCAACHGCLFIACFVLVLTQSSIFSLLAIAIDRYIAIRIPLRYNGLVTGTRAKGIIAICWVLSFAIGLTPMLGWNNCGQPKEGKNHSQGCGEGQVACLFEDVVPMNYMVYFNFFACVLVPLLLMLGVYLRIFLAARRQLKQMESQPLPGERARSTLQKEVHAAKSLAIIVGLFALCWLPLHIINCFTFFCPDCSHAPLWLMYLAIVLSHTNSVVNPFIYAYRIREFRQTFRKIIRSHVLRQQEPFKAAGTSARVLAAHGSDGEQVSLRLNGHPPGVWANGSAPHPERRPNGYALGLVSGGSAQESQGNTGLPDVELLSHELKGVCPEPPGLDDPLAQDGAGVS

| SMILES | IC50 [1] | Ki [1] | IC50 [2] | Ki [2] | IC50 [3] | Ki [3] | IC50 [4] | IC50 [5] | IC50 [6] | Ki [6] | IC50 [7] | Ki [4] | Ki [5] | Ki [7] | IC50 ([1]; read-out: IC50) [nM] | Ki ([1]; read-out: Ki) [nM] |
| --- | --- | --- | --- | --- | --- | --- | --- | --- | --- | --- | --- | --- | --- | --- | --- | --- |
| NCCCCCC(=O)O [AMINOCAPROIC ACID] | Not Active | Not Active | Not Active | Not Active | Not Active | Not Active | Not Active | Not Active | Not Active | Not Active | Not Active | – | – | – | – | – |
| CCC1(c2ccc(N)cc2)CCC(=O)NC1=O (centres undefined) [AMINOGLUTETHIMIDE] | Not Active | Not Active | Not Active | Not Active | Not Active | Not Active | Not Active | Not Active | Not Active | Not Active | Not Active | – | – | – | – | – |
| Cc1ccc(/N=C/N(C)/C=N/c2ccc(C)cc2C)c(C)c1 [AMITRAZ] | Not Active | Not Active | Not Active | Not Active | Not Active | Not Active | Not Active | Not Active | Not Active | Not Active | Not Active | – | – | – | – | – |
| CCOC(=O)C1=C(COCCN)NC(C)=C(C(=O)OC)C1c1ccccc1Cl (centres undefined) [AMLODIPINE] | Not Active | Not Active | Not Active | Not Active | Not Active | Not Active | Not Active | Not Active | Not Active | Not Active | Not Active | – | – | – | – | – |
| COc1ccc(C[C@H]2NC[C@H](O)[C@H]2OC(C)=O)cc1 [ANISOMYCIN] | Not Active | Not Active | Not Active | Not Active | Not Active | Not Active | Not Active | Not Active | Not Active | Not Active | Not Active | Not Active | Not Active | Not Active | – | – |
| Nc1ncn([C@@H]2O[C@H](CO)[C@@H](O)[C@H]2O)c(=O)n1 [AZACITIDINE] | Not Active | Not Active | Not Active | Not Active | Not Active | Not Active | Not Active | Not Active | Not Active | Not Active | Not Active | – | – | – | – | – |
| CN(C)C(=O)Oc1cc(OC(=O)N(C)C)cc(C(O)CNC(C)(C)C)c1 (centres undefined) [BAMBUTEROL] | Not Active | Not Active | Not Active | Not Active | Not Active | Not Active | Not Active | Not Active | Not Active | Not Active | Not Active | – | – | – | – | – |
| c1ccc2c(c1)c1cccc3ccc4cccc2c4c31 [BENZO[E]PYRENE] | Not Active | Not Active | Not Active | Not Active | Not Active | Not Active | Not Active | Not Active | Not Active | Not Active | Not Active | – | – | – | – | – |
| CNCCc1ccccn1 [BETAHISTINE] | Not Active | Not Active | Not Active | Not Active | Not Active | Not Active | Not Active | Not Active | Not Active | Not Active | Not Active | – | – | – | – | – |
| CC(C)C(Br)C(=O)NC(N)=O (centres undefined) [BROMISOVALUM] | Not Active | Not Active | Not Active | Not Active | Not Active | Not Active | Not Active | Not Active | Not Active | Not Active | Not Active | – | – | – | – | – |
| CCCC1O[C@@H]2C[C@H]3[C@@H]4CCC5=CC(=O)C=C[C@]5(C)[C@H]4[C@@H](O)C[C@]3(C)[C@]2(C(=O)CO)O1 (some centres undefined) [BUDESONIDE] | Not Active | Not Active | Not Active | Not Active | Not Active | Not Active | Not Active | Not Active | Not Active | Not Active | Not Active | – | – | – | – | – |
| CN(C)CCCN1c2ccccc2Sc2ccc(Cl)cc21 [CHLORPROMAZINE] | – | – | Not Active | Not Active | Not Active | Not Active | – | Not Active | Not Active | Not Active | Not Active | – | – | – | 1530 | 1480 |
